The series is described as follows: In vitro dissolution test, microcentrifuge method, in phosphate buffered saline (PBS) pH 6.5. Format: physicochemical. How it is done:
The compositions comprising the CETP inhibitor and concentration-enhancing polymer provide enhanced concentration of the dissolved CETP inhibitor in in vitro dissolution tests. […] An appropriate PBS solution is an aqueous solution comprising 20 mM sodium phosphate (Na2HPO4), 47 mM potassium phosphate (KH2PO4), 87 mM NaCl, and 0.2 mM KCl, adjusted to pH 6.5 with NaOH. An appropriate MFD solution is the same PBS solution wherein additionally is present 7.3 mM sodium taurocholic acid and 1.4 mM of 1-palmitoyl-2-oleyl-sn-glycero-3-phosphocholine. In particular, a composition of the present invention can be dissolution-tested by adding it to MFD or PBS solution and agitating to promote dissolution.
Indeed, for some extremely insoluble CETP inhibitors, in order to identify the MDC achieved it may be necessary to use an amount of test composition such that if all of the CETP inhibitor dissolved, the CETP inhibitor concentration would be 10,000-fold or even more, that of the equilibrium concentration of the CETP inhibitor.
The MDC is taken to be the maximum value of dissolved CETP inhibitor measured over the duration of the test.
Filtration can be conducted using a 13 mm, 0.45 μm polyvinylidine difluoride syringe filter sold by Scientific Resources under the trademark TITAN®. Centrifugation is typically carried out in a polypropylene microcentrifuge tube by centrifuging at 13,000 G for 60 seconds. Other similar filtration or centrifugation methods can be employed and useful results obtained.
The spray-dried dispersions of Examples 6 and 7 were evaluated in an in vitro dissolution test using a microcentrifuge method. In this test, the spray-dried dispersion was added to a microcentrifuge tube for a Drug 2 dose of about 1000 μg/mL (7.2 mg for Example 6, 18 mg for Example 7). The tube was placed in a 37° C. sonicating bath, and 1.8 mL phosphate buffered saline (PBS) at pH 6.5 and 290 mOsm/kg was added. The samples were quickly mixed using a vortex mixer for about 60 seconds. The samples were centrifuged at 13,000 G at 37° C. for 1 minute. The resulting supernatant solution was then sampled and diluted 1:6 (by volume) with methanol and then analyzed by high-performance liquid chromatography (HPLC). The contents of the tubes were mixed on the vortex mixer and allowed to stand undisturbed at 37° C. until the next sample was taken. Samples were collected at 4, 10, 20, 40, 90, and 1200 minutes.
For Control 2, an in vitro dissolution test was performed using the procedures described above except that 1.8 mg of crystalline Drug 2 was used.
In this method, 7.2 mg of each spray-dried dispersion was added to a 2-mL microcentrifuge tube. The tube was placed in a 37° C. sonicating bath, and 1.8 mL of a phosphate-buffered saline (PBS) solution at pH 6.5 and 290 mOsm/kg was added, resulting in a TCmax of 400 μg/mL. The samples were quickly mixed using a combination of vortex mixer and sonication for about 90 seconds. The samples were centrifuged at 13,000 G at 37° C. for 1 minute. The resulting supernatant solution was then sampled and diluted 1:6 (by volume) with methanol and then analyzed by HPLC. The tubes were then mixed on the vortex mixer and allowed to stand undisturbed at 37° C. until the next sample. Samples were collected at 4, 10, 20, 40, 90 and 1200 minutes.
For Control 5, an in vitro dissolution test was performed using the procedure described above, except that 0.72 mg of non-crystalline Drug 3 was placed in a microcentrifuge tube and mixed with 1.8 mL of PBS.
In this method, 15 mg of each SDD was added to a 2-mL microcentrifuge tube. The tube was placed in a 37° C. sonicating bath, and 1.5 mL of a phosphate-buffered saline (PBS) solution at pH 6.5 and 290 mOsm/kg) was added, resulting in a TCmax of 1000 μg/mL. The samples were quickly mixed using a combination of vortex mixer and sonication for about 90 seconds.

[1] abbreviates: PBS pH 6.5, 37° C., TCmax 1000 μg/mL, time 4 min.
Setting [2] is: PBS pH 6.5, 37° C., TCmax 1000 μg/mL, time 10 min.
The mark [3] stands for this setting: PBS pH 6.5, 37° C., TCmax 1000 μg/mL, time 20 min.
[4] abbreviates: PBS pH 6.5, 37° C., TCmax 1000 μg/mL, time 40 min.
[5] abbreviates: PBS pH 6.5, 37° C., TCmax 1000 μg/mL, time 90 min.
Setting [6] is: Table 16, Drugs 4-9, PBS pH 6.5, 37° C., TCmax 1000 μg/mL.
Where [7] appears, read: Table 18, Drug 10 or Drug 11, PBS pH 6.5, 37° C., 0 min, TCmax 1000 μg/mL.
Where [8] appears, read: Table 18, Drug 10 or Drug 11, PBS pH 6.5, 37° C., 4 min, TCmax 1000 μg/mL.
Where [9] appears, read: Table 18, Drug 10 or Drug 11, PBS pH 6.5, 37° C., 10 min, TCmax 1000 μg/mL.
Where [10] appears, read: Table 18, Drug 10 or Drug 11, PBS pH 6.5, 37° C., 20 min, TCmax 1000 μg/mL.
[11] abbreviates: Table 18, Drug 10 or Drug 11, PBS pH 6.5, 37° C., 40 min, TCmax 1000 μg/mL.
[12] abbreviates: Table 18, Drug 10 or Drug 11, PBS pH 6.5, 37° C., 90 min, TCmax 1000 μg/mL.
[13] abbreviates: Table 18, Drug 10 or Drug 11, PBS pH 6.5, 37° C., 1200 min, TCmax 1000 μg/mL.
The mark [14] stands for this setting: Table 18, Drug 10 or Drug 11, PBS pH 6.5, 37° C., to 0 min, TCmax 1000 μg/mL.
Where [15] appears, read: Table 18, Drug 10 or Drug 11, PBS pH 6.5, 37° C., to 4 min, TCmax 1000 μg/mL.
Where [16] appears, read: Table 18, Drug 10 or Drug 11, PBS pH 6.5, 37° C., to 10 min, TCmax 1000 μg/mL.
Where [17] appears, read: Table 18, Drug 10 or Drug 11, PBS pH 6.5, 37° C., to 20 min, TCmax 1000 μg/mL.
The mark [18] stands for this setting: Table 18, Drug 10 or Drug 11, PBS pH 6.5, 37° C., to 40 min, TCmax 1000 μg/mL.
[19] abbreviates: Table 18, Drug 10 or Drug 11, PBS pH 6.5, 37° C., to 90 min, TCmax 1000 μg/mL.
Setting [20] is: Table 18, Drug 10 or Drug 11, PBS pH 6.5, 37° C., to 1200 min, TCmax 1000 μg/mL.
Where [21] appears, read: Table 19: Drugs 10 and 11, PBS pH 6.5, TCmax 1000 μg/mL.
[22] abbreviates: Table 13, Drug 3, PBS, TCmax 400 μg/mL.

The results in this text go back to patent US8389011B2, “Pharmaceutical compositions of cholesteryl ester transfer protein inhibitors” (Bend Research, Inc., priority 2000, dated 2013).

A value given as a limit tells only on which side of the number the result lay.

Take `CCOC(=O)N1c2cc3c(cc2[C@@H](N(Cc2cc(C(F)(F)F)cc(C(F)(F)F)c2)C(=O)OC)C[C@H]1C)CCC3` [Control 8, [2R,4S]4-[(3,5-bis-trifluoromethyl-benzyl)-methoxycarbonyl-amino]-2-methyl-2,3,4,6,7,8-hexahydro-cyclopenta[g]quinoline-1-carboxylic acid ethyl ester]: the AUC by setting is: under setting [1], below 4 min-μg/mL; under setting [2], below 10 min-μg/mL; under setting [3], below 20 min-μg/mL; under setting [4], below 40 min-μg/mL; under setting [5], below 90 min-μg/mL. Moreover, the Concentration was below 1000 ng/mL under setting [1]; below 1000 ng/mL under setting [2]; below 1000 ng/mL under setting [3]; below 1000 ng/mL under setting [4]; below 1000 ng/mL under setting [5]. Besides, the AUC90 under setting [6] is recorded as below 90 min-μg/mL. Further, under setting [6], the “Cmax, 90” value was below 1000 ng/mL.

As to `CCc1cc(Oc2cccc(N(Cc3cccc(OC(F)(F)C(F)F)c3)C[C@@H](O)C(F)(F)F)c2)ccc1Cl` [Control 13, (2R)-3-[[3-(4-chloro-3-ethylphenoxy)phenyl][[3-(1,1,2,2-tetrafluoroethoxy)phenyl]methyl]amino]-1,1,1-trifluoro-2-propanol], the Concentration under setting [7] worked out at 0 ng/mL; the Concentration under setting [8] came out at 1000 ng/mL; the Concentration under setting [9] was 1000 ng/mL; the Concentration under setting [10] came to 1000 ng/mL; the Concentration under setting [11] came to 1000 ng/mL; the Concentration under setting [12] stood at 1000 ng/mL. Under setting [13], the Concentration is 0 ng/mL. Also, the AUC came to 0 min-μg/mL under setting [14]; 0 min-μg/mL under setting [15]; 0 min-μg/mL under setting [16]; 0 min-μg/mL under setting [17]; 0 min-μg/mL under setting [18]; 100 min-μg/mL under setting [19]. Moreover, the AUC under setting [20] was 600 min-μg/mL. Also, under setting [21], the AUC90 was 80 min-μg/mL. Further, under setting [21], the “Cmax, 90” value amounted to 1000 ng/mL.

Consider `CC(C)c1cc2c(c(-c3ccc(F)cc3)c1[C@@H](F)c1ccc(C(F)(F)F)cc1)[C@@H](O)CC1(CCC1)C2` [Control 12, (4′S)-5′-(4-fluorophenyl)-6′-[(S)-fluoro[4-(trifluoromethyl)phenyl]methyl]-3′,4′-dihydro-7′-(1-methylethyl)-spiro[cyclobutane-1,2′(1′H)-naphthalen]-4′-ol], for which the Concentration under setting [7] was 0 ng/mL; the Concentration under setting [8] was 0 ng/mL; the Concentration under setting [9] turned out to be 1000 ng/mL; the Concentration under setting [10] amounted to 3000 ng/mL; the Concentration under setting [11] came out at 6000 ng/mL; the Concentration under setting [12] came to 1000 ng/mL. Also, under setting [13], the Concentration came out at 0 ng/mL. The AUC is on record as 0 min-μg/mL under setting [14]; 0 min-μg/mL under setting [15]; 0 min-μg/mL under setting [16]; 0 min-μg/mL under setting [17]; 100 min-μg/mL under setting [18]; 300 min-μg/mL under setting [19]. Also, the AUC under setting [20] is reported as 1,100 min-μg/mL. Further, under setting [21], the AUC90 amounted to 300 min-μg/mL. Under setting [21], the “Cmax, 90” value came to 6000 ng/mL.

With `CC[C@@H]1C[C@H](N(Cc2cc(C(F)(F)F)cc(C(F)(F)F)c2)C(=O)OC)c2cc(C(F)(F)F)ccc2N1C(=O)OC(C)C` [Control 14, [2R,4S]4-[(3,5-bis-trifluoromethyl-benzyl)-methoxycarbonyl-amino]-2-ethyl-6-trifluoromethyl-3,4-dihydro-2H-quinoline-1-carboxylic acid isopropyl ester], under “Table 34: Drug 12, PBS”, the AUC90 is given as below 88 min-μg/mL and the “Cmax, 90” value was below 1000 ng/mL.

`CCCOC(=O)N1c2ccc(C(F)(F)F)cc2[C@@H](N(Cc2cc(C(F)(F)F)cc(C(F)(F)F)c2)C(=O)OC)C[C@H]1CC` [Control 5, [2R,4S]4-[(3,5-bis-trifluoromethyl-benzyl)-methoxycarbonyl-amino]-2-ethyl-6-trifluoromethyl-3,4-dihydro-2H-quinoline-1-carboxylic acid propyl ester]: the Concentration was 0 ng/mL (Table 12, Drug 3, PBS pH 6.5, 37° C., 0 min, TCmax 400 μg/mL); below 100 ng/mL (Table 12, Drug 3, PBS pH 6.5, 37° C., 4 min, TCmax 400 μg/mL); below 100 ng/mL (Table 12, Drug 3, PBS pH 6.5, 37° C., 10 min, TCmax 400 μg/mL); below 100 ng/mL (Table 12, Drug 3, PBS pH 6.5, 37° C., 20 min, TCmax 400 μg/mL); below 100 ng/mL (Table 12, Drug 3, PBS pH 6.5, 37° C., 40 min, TCmax 400 μg/mL); below 100 ng/mL (Table 12, Drug 3, PBS pH 6.5, 37° C., 90 min, TCmax 400 μg/mL). Besides, the AUC is 0 min-μg/mL (Table 12, Drug 3, PBS pH 6.5, 37° C., to 0 min, TCmax 400 μg/mL); below 0.4 min-μg/mL (Table 12, Drug 3, PBS pH 6.5, 37° C., to 4 min, TCmax 400 μg/mL); below 1.0 min-μg/mL (Table 12, Drug 3, PBS pH 6.5, 37° C., to 10 min, TCmax 400 μg/mL); below 2.0 min-μg/mL (Table 12, Drug 3, PBS pH 6.5, 37° C., to 20 min, TCmax 400 μg/mL); below 4.0 min-μg/mL (Table 12, Drug 3, PBS pH 6.5, 37° C., to 40 min, TCmax 400 μg/mL); below 9.0 min-μg/mL (Table 12, Drug 3, PBS pH 6.5, 37° C., to 90 min, TCmax 400 μg/mL). Also, under setting [22], the AUC90 was below 9.0 min-μg/mL. Moreover, the “Cmax, 90” value under setting [22] was below 100 ng/mL.
